{"source": "ChEMBL document CHEMBL4507278", "about": "(2021)", "key": {"[1]": {"molecular_target": "Alpha-1A adrenergic receptor (Rattus norvegicus) (UniProt P43140)", "experiment": "ALPHA1A/R Eurofins-Panlabs selectivity data (BI)", "conditions": "Compound concentration 10.0 uM; call rule not given here"}, "[2]": {"molecular_target": "Sodium channel regulatory subunit beta-1 (Rattus norvegicus) (UniProt Q00954)", "sequence (Q00954 whole entry)": "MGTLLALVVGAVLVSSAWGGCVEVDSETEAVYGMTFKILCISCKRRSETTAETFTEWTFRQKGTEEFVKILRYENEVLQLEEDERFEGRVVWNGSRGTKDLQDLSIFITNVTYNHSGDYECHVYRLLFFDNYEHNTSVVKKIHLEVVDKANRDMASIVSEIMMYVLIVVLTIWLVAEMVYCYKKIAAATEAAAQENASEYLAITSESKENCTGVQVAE", "experiment": "NA+/SITE2/RA Eurofins-Panlabs selectivity data (BI)", "conditions": "Compound concentration 10.0 uM"}, "[3]": {"molecular_target": "Neuropeptide Y receptor type 1 (Homo sapiens) (UniProt P25929)", "sequence (P25929 whole entry)": "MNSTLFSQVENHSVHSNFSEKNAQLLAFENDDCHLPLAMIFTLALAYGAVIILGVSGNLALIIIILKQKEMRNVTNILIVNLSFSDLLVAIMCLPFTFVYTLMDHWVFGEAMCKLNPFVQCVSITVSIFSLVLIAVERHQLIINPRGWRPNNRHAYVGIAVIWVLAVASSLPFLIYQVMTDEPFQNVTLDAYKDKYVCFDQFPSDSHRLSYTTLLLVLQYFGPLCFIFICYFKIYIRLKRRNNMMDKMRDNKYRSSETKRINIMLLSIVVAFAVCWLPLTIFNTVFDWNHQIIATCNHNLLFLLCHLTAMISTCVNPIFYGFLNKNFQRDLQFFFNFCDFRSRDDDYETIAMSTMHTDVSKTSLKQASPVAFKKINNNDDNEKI", "experiment": "Y1/HU Eurofins-Panlabs selectivity data (BI)", "conditions": "Compound concentration 10.0 uM"}, "[4]": {"molecular_target": "Muscarinic acetylcholine receptor M1 (Homo sapiens) (UniProt P11229)", "experiment": "M1/HU Eurofins-Panlabs selectivity data (BI)", "conditions": "Compound concentration 10.0 uM"}, "[5]": {"molecular_target": "Gamma-aminobutyric acid receptor subunit alpha-1 (Rattus norvegicus) (UniProt P62813)", "sequence (P62813 whole entry)": "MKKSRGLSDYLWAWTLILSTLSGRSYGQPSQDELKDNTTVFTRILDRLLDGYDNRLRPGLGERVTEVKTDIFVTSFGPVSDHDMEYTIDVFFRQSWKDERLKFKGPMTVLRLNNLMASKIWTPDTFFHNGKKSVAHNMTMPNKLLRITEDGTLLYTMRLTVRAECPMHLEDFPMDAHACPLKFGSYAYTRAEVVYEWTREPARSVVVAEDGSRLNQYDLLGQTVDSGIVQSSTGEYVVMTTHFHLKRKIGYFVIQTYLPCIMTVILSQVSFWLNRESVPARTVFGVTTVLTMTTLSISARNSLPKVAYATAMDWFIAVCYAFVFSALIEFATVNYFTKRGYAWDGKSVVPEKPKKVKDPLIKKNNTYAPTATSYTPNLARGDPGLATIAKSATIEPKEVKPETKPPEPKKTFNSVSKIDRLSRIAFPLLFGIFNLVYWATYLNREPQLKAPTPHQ", "experiment": "GABAA MUSCIMOL CENT Eurofins-Panlabs selectivity data (BI)", "conditions": "Compound concentration 10.0 uM"}, "[6]": {"molecular_target": "Gamma-aminobutyric acid type B receptor subunit 1 (Homo sapiens) (UniProt Q9UBS5)", "experiment": "GABA_B1A Eurofins-Panlabs selectivity data (BI)", "conditions": "Compound concentration 10.0 uM"}, "[7]": {"molecular_target": "5-hydroxytryptamine receptor 2B (Homo sapiens) (UniProt P41595)", "experiment": "5HT2B/HU Eurofins-Panlabs selectivity data (BI)", "conditions": "Compound concentration 10.0 uM"}, "[8]": {"molecular_target": "Substance-P receptor (Homo sapiens) (UniProt P25103)", "experiment": "NK1/HU Eurofins-Panlabs selectivity data (BI)", "conditions": "Compound concentration 10.0 uM"}, "[9]": {"molecular_target": "Platelet-activating factor receptor (Homo sapiens) (UniProt P25105)", "experiment": "PAF/H Eurofins-Panlabs selectivity data (BI)", "conditions": "Compound concentration 10.0 uM"}, "[10]": {"molecular_target": "Glucocorticoid receptor (Homo sapiens) (UniProt P04150)", "experiment": "GLUCOCORTICO Eurofins-Panlabs selectivity data (BI)", "conditions": "Compound concentration 10.0 uM"}, "[11]": {"molecular_target": "Prostaglandin E2 receptor EP4 subtype (Homo sapiens) (UniProt P35408)", "experiment": "PEP4_HU Eurofins-Panlabs selectivity data (BI)", "conditions": "Compound concentration 10.0 uM"}, "[12]": {"molecular_target": "Sodium-dependent serotonin transporter (Homo sapiens) (UniProt P31645)", "experiment": "5HTTRANS/HU Eurofins-Panlabs selectivity data (BI)", "conditions": "Compound concentration 10.0 uM"}, "[13]": {"molecular_target": "Sodium-dependent noradrenaline transporter (Homo sapiens) (UniProt P23975)", "experiment": "NETRANS/H Eurofins-Panlabs selectivity data (BI)", "conditions": "Compound concentration 10.0 uM"}, "[14]": {"molecular_target": "T1, D(4) dopamine receptor (Homo sapiens) (UniProt P21917)", "T1 sequence (whole entry)": "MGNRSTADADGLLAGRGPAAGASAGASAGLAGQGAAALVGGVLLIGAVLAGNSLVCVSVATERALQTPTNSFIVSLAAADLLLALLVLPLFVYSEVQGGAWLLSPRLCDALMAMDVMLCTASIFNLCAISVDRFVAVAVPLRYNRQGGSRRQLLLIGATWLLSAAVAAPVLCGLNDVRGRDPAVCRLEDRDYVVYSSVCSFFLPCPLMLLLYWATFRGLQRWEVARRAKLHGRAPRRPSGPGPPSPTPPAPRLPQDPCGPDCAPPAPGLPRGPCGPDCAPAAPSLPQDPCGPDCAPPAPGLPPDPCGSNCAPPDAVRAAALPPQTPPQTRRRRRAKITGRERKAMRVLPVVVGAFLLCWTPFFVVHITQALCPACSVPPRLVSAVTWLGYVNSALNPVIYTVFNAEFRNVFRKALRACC", "experiment": "D4.2/H Eurofins-Panlabs selectivity data (BI)", "conditions": "Compound concentration 10.0 uM"}, "[15]": {"molecular_target": "Adenosine receptor A1 (Homo sapiens) (UniProt P30542)", "sequence (P30542 whole entry)": "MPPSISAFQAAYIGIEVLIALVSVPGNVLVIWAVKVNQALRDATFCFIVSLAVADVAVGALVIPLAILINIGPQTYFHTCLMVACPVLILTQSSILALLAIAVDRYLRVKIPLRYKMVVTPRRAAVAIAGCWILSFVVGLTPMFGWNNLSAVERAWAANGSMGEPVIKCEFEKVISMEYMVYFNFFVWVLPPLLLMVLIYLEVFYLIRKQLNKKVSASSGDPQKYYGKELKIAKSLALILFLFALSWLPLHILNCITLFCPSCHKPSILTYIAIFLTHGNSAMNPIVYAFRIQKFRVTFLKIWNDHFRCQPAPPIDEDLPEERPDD", "experiment": "A1/HU Eurofins-Panlabs selectivity data (BI)", "conditions": "Compound concentration 10.0 uM"}, "[16]": {"molecular_target": "Delta-type opioid receptor (Homo sapiens) (UniProt P41143)", "experiment": "DELTA/HU Eurofins-Panlabs selectivity data (BI)", "conditions": "Compound concentration 10.0 uM"}, "[17]": {"molecular_target": "Voltage-dependent N-type calcium channel subunit alpha-1B (Rattus norvegicus) (UniProt Q02294)", "sequence (Q02294 whole entry, looked up)": "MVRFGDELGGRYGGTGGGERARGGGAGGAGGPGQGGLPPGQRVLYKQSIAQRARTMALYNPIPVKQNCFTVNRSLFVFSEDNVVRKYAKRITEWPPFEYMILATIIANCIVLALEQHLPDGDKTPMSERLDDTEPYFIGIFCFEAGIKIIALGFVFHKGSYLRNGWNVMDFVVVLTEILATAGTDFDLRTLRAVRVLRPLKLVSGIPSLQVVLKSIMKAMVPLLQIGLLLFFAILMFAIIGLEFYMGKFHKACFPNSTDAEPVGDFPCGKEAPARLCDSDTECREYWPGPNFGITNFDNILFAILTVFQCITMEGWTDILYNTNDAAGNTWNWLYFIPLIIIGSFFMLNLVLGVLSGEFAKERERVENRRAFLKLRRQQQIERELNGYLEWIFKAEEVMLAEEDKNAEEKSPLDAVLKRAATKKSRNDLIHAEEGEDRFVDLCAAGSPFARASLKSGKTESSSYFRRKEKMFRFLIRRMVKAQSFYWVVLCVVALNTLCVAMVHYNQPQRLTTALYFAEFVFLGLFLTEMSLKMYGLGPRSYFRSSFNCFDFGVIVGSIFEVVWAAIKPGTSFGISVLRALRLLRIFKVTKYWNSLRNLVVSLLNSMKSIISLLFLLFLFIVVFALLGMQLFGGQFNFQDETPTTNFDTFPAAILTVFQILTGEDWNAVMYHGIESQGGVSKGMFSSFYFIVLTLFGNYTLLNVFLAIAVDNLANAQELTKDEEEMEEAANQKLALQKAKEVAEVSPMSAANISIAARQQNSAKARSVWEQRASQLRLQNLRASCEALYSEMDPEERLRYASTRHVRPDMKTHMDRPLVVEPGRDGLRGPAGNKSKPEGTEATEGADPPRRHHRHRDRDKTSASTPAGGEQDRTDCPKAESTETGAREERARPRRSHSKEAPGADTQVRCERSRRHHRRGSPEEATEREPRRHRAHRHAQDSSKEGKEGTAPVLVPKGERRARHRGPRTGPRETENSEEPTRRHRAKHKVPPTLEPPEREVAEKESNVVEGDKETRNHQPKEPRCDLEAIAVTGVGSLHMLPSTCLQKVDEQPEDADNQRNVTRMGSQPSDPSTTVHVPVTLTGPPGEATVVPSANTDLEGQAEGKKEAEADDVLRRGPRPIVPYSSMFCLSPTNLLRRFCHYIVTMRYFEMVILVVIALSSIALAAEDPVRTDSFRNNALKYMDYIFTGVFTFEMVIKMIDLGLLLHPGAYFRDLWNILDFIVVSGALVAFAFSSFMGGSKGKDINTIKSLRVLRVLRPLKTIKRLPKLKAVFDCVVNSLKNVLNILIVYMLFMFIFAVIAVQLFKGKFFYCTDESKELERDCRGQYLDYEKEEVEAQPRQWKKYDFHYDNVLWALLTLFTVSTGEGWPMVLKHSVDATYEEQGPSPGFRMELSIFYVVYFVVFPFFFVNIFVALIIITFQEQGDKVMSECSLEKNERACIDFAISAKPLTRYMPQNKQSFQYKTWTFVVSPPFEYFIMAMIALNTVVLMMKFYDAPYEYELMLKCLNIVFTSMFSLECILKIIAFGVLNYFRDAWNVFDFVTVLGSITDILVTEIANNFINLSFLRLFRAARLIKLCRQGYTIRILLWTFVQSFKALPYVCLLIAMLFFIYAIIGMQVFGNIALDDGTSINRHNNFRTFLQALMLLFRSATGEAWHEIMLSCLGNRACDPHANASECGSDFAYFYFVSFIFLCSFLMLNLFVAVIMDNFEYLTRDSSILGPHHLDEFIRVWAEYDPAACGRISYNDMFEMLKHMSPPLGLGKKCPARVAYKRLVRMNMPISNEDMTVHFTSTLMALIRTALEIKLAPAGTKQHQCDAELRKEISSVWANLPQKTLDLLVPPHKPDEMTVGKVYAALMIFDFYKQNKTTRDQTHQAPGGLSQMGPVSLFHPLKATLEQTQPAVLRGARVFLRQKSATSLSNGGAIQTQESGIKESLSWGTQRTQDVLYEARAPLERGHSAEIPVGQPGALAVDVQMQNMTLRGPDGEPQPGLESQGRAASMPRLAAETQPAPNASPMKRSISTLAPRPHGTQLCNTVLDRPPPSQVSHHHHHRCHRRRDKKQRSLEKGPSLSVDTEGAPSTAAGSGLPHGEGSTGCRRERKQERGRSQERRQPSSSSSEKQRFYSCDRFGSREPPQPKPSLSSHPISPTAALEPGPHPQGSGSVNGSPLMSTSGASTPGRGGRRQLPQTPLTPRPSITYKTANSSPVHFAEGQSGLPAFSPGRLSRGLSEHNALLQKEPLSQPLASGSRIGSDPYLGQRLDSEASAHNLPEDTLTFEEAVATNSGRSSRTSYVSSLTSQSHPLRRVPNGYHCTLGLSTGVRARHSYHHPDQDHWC", "experiment": "CA+/N/RA Eurofins-Panlabs selectivity data (BI)", "conditions": "Compound concentration 10.0 uM"}, "[18]": {"molecular_target": "D(3) dopamine receptor (Homo sapiens) (UniProt P35462)", "sequence (P35462 whole entry)": "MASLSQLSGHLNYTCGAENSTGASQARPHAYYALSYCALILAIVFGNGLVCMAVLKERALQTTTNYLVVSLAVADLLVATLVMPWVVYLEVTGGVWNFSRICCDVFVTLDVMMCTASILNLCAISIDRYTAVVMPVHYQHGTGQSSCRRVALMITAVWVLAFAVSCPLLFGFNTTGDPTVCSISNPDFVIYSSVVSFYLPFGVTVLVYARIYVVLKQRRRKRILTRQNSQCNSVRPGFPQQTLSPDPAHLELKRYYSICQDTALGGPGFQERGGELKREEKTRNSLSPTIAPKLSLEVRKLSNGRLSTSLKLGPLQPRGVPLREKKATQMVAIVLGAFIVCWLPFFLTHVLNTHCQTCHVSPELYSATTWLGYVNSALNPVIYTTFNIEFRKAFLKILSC", "conditions": "Compound concentration 10.0 uM"}, "[19]": {"molecular_target": "D(2) dopamine receptor (Homo sapiens) (UniProt P14416)", "experiment": "D2S/HU Eurofins-Panlabs selectivity data (BI)", "conditions": "Compound concentration 10.0 uM"}, "[20]": {"molecular_target": "P2Y purinoceptor 1 (Rattus norvegicus) (UniProt P49651)", "experiment": "P2Y/RAT Eurofins-Panlabs selectivity data (BI)", "conditions": "Compound concentration 10.0 uM"}, "[21]": {"molecular_target": "Muscarinic acetylcholine receptor M3 (Homo sapiens) (UniProt P20309)", "conditions": "Compound concentration 10.0 uM"}, "[22]": {"molecular_target": "Gamma-aminobutyric acid receptor subunit alpha-1 (Rattus norvegicus) (UniProt P62813)", "experiment": "GABAACENTR Eurofins-Panlabs selectivity data (BI)", "conditions": "Compound concentration 10.0 uM"}, "hERG (KCNH2)": {"molecular_target": "hERG (KCNH2) (Homo sapiens, UniProt Q12809)", "experiment": "K+/HERG Eurofins-Panlabs selectivity data (BI)", "conditions": "compound concentration 10 uM, read-out: % Ctrl"}, "[23]": {"molecular_target": "Adenosine receptor A2a (Homo sapiens) (UniProt P29274)", "experiment": "A2A/HU Eurofins-Panlabs selectivity data (BI)", "conditions": "Compound concentration 10.0 uM"}, "[24]": {"molecular_target": "Mitogen-activated protein kinase kinase kinase 3 (Homo sapiens) (UniProt Q99759)", "sequence (Q99759 whole entry)": "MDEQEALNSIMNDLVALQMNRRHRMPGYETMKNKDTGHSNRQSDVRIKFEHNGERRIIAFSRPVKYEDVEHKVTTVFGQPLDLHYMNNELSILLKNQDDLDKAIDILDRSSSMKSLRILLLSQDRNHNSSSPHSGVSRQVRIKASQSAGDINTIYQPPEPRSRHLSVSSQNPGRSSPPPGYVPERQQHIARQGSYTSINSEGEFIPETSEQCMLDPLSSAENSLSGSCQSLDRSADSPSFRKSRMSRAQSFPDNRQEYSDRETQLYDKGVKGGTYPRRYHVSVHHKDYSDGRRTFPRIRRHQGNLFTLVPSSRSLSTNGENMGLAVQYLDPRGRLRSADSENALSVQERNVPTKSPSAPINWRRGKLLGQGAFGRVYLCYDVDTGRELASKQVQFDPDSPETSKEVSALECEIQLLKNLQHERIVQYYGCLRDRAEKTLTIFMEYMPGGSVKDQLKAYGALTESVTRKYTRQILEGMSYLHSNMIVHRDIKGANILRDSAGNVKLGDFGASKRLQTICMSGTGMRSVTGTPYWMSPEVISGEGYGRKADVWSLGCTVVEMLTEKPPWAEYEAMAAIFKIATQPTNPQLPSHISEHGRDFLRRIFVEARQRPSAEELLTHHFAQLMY", "conditions": "Compound concentration 1000.0 nM"}, "[25]": {"molecular_target": "Leukocyte tyrosine kinase receptor (Homo sapiens) (UniProt P29376)", "conditions": "Compound concentration 1000.0 nM"}, "[26]": {"molecular_target": "5-hydroxytryptamine receptor 2C (Homo sapiens) (UniProt P28335)", "conditions": "Compound concentration 10.0 uM"}, "[27]": {"molecular_target": "Muscarinic acetylcholine receptor M2 (Homo sapiens) (UniProt P08172)", "conditions": "Compound concentration 10.0 uM"}}}
{"compound": "CS(=O)(=O)c1cc(C2(NC(=O)c3cncc4c3cnn4-c3ccc(F)cc3)CC2)ccn1", "note": "[BI 639667]", "values": [{"measurement": "residual activity", "setting": "[1]", "value": 88, "unit": "%"}, {"measurement": "residual activity", "setting": "[2]", "value": 81, "unit": "%"}, {"measurement": "residual activity", "setting": "[3]", "value": 101, "unit": "%"}, {"measurement": "residual activity", "setting": "[4]", "value": 99, "unit": "%"}, {"measurement": "residual activity", "setting": "[5]", "value": 98, "unit": "%"}, {"measurement": "residual activity", "setting": "[6]", "value": 90, "unit": "%"}, {"measurement": "residual activity", "setting": "[7]", "value": 93, "unit": "%"}, {"measurement": "residual activity", "setting": "[8]", "value": 95, "unit": "%"}, {"measurement": "residual activity", "setting": "[9]", "value": 93, "unit": "%"}, {"measurement": "residual activity", "setting": "[10]", "value": 96, "unit": "%"}, {"measurement": "residual activity", "setting": "[11]", "value": 97, "unit": "%"}, {"measurement": "residual activity", "setting": "[12]", "value": 100, "unit": "%"}, {"measurement": "residual activity", "setting": "[13]", "value": 82, "unit": "%"}, {"measurement": "residual activity", "setting": "[14]", "value": 94, "unit": "%"}, {"measurement": "residual activity", "setting": "[15]", "value": 82, "unit": "%"}, {"measurement": "residual activity", "setting": "[16]", "value": 91, "unit": "%"}, {"measurement": "residual activity", "setting": "[17]", "value": 90, "unit": "%"}, {"measurement": "inhibition", "setting": "[18]", "value": 17.6, "unit": "%"}, {"measurement": "residual activity", "setting": "[19]", "value": 93, "unit": "%"}, {"measurement": "residual activity", "setting": "[20]", "value": 88, "unit": "%"}, {"measurement": "inhibition", "setting": "[21]", "value": 22, "unit": "%"}, {"measurement": "residual activity", "setting": "[22]", "value": 104, "unit": "%"}, {"measurement": "activity at 10 µM", "setting": "hERG (KCNH2)", "value": "104% (not active)"}, {"measurement": "residual activity", "setting": "[23]", "value": 31, "unit": "%"}]}
{"compound": "CS(=O)(=O)NCC[C@H](NC(=O)c1cncc2c1cnn2-c1ccc(F)cc1)c1ccnc(S(C)(=O)=O)c1", "note": "[BI 9307]", "values": [{"measurement": "residual activity", "setting": "[24]", "value": 100, "unit": "%"}, {"measurement": "residual activity", "setting": "[25]", "value": 100, "unit": "%"}, {"measurement": "inhibition", "setting": "[26]", "value": -0.86, "unit": "%"}, {"measurement": "inhibition", "setting": "[27]", "value": 17.4, "unit": "%"}]}
